# Where a SMILES comes first, the peptide text is derived from it. [ ]: non-standard residue; d: D form. d2Nal = N[C@H](Cc1ccc2ccccc2c1)C(=O)O
# Columns and labels:
# [1] = In vivo absorption after intranasal administration to rats (plasma concentration, two-antibody competition method); conditions: Crj:CD (SD), rat; for Tmax: male rats; for AUC / Cmax / bioavailability: male
# Description: With an isotonic solution (in distilled water) of 5 w/v % D-mannitol or physiological saline used as a solvent, a solution of 0.1 w/v % pralmorelin dihydrochloride was prepared and administered to male rats (7-week old, Crj:CD (SD) strain, N=3) in an amount of 50 μg/kg.
# With the rats fixed supine under an unanesthetized condition, the pralmorelin solution was administered into one nostril of each rat in an amount of 50 μg/kg with a micropipette. The rats were not anesthetized for two reasons: actual drug administration is effected without anesthesia; the effects anesthetization would have on drug absorption have not been elucidated.
# The concentration of an unchanged substance in plasma was measured in accordance with the two-antibody competition method of Kitagawa et al. summarized below [J. Assoc. Off. Anal. Chem., Vol. 68, No. 4, pp. 661–664 (1985) and J. Immunological Methods, 72, pp. 109–118 (1984)].
# Anti-rabbit IgG goat IgG (Jackson Immuno Research) as the second antibody was adsorbed on an ELISA 96-well microplate (GREINER). Then, anti-pralmorelin dihydrochloride rabbit serum was adsorbed on the same microplate; the serum was the first antibody and had been obtained by subcutaneous injection of rabbits with an immunogen having pralmorelin dihydrochloride bound to bovine serum albumin (Sigma) by means of water-soluble carbodiimide (Nakarai Tesk).
# Pralmorelin dihydrochloride contained in a sample was allowed to compete for pralmorelin labeled β-galactosidase that had been crosslinked with crosslinker N-(m-maleimidebenzoyloxy)succinimide (Nakaral Tesk); then, the β-galactosidase bound to the first antibody was reacted with 4-methylumbelliferyl-β-D-galactopyranoside; thereafter, the enzymatic activity of the β-galactosidase bound to the first antibody was measured at an excitation wavelength of 370 nm and a fluorescence wavelength of 460 nm.
# From the measured values for the enzymatic activity of the β-galactosidase, the maximum plasma drug concentration (Cmax) of pralmorelin dihydrochloride, the area under the plasma drug concentration vs time curve (AUC) and the bioavailability (the ratio of AUC obtained by intranasal administration to AUC obtained by intravenous administration) were obtained.
# Two kinds of preparation for intranasal administration, one consisting of pralmorelin dihydrochloride and distilled water and the other further containing D-mannitol at varying concentrations, were evaluated for their effects on in vivo absorption of pralmorelin dihydrochloride. With four kinds of solvent, distilled water, 2.5 w/v % D-mannitol solution (osmolarity ratio, 0.5), 5 w/v % D-mannitol solution (osmolarity ratio, 1), 10 w/v % D-mannitol solution (osmolarity ratio, 2), solutions of 0.4 w/v % pralmorelin dihydrochloride were prepared and administered in an amount of 50 μg/kg to male rats as in Example 1.
# With an aqueous solution of 0.005 w/v % benzalkonium chloride used as a base, pralmorelin preparations for intranasal administration were made at three concentrations, 0.1 w/v %, 0.3 w/v % and 1.0 w/v %, of pralmorelin dihydrochloride. Each preparation was dripped into the right nostril of 5-week old male Crj:CD (SD) rats (N=3). The dose of administration was 0.1 mg/kg, 0.3 mg/kg and 1.0 mg/kg for the respective preparations, which were all administered in a volume of 0.1 ml/kg.
# [2] = Saturated solubility in physiological saline; assay type: physicochemical; conditions: 25° C., as dihydrochloride
# Description: To be more specific, pralmorelin has low saturated solubility in physiological saline (0.15 w/v % at 25° C. when it is dihydrochloride) and at higher concentrations, pralmorelin becomes insoluble with the lapse of time and a problem occurs in terms of storage stability, thus making it difficult to formulate pralmorelin pharmaceutically using physiological saline. Even at concentrations lower than its saturated solubility, pralmorelin has low in vivo absorption and needs frequent administration.
# [3] = inhaled or intranasal, 50 ug/kg, intranasal 50 μg/kg, 0.1 w/v % solution in 5 w/v % D-mannitol
# [4] = inhaled or intranasal, 50 ug/kg, intranasal 50 μg/kg, 0.1 w/v % solution in physiological saline
# [5] = inhaled or intranasal, 50 ug/kg, intranasal 50 μg/kg, 0.4 w/v % solution in 2.5 w/v % D-mannitol (osmolarity ratio 0.5)
# [6] = inhaled or intranasal, 50 ug/kg, intranasal 50 μg/kg, 0.4 w/v % solution in 5 w/v % D-mannitol (osmolarity ratio 1)
# [7] = inhaled or intranasal, 50 ug/kg, intranasal 50 μg/kg, 0.4 w/v % solution in 10 w/v % D-mannitol (osmolarity ratio 2)
# [8] = inhaled or intranasal, 50 ug/kg, intranasal 50 μg/kg, 0.4 w/v % solution in distilled water
# [9] = inhaled or intranasal, 0.1 mg/kg, intranasal 0.1 mg/kg, 0.1 w/v % in aqueous 0.005 w/v % benzalkonium chloride, 0.1 ml/kg
# [10] = inhaled or intranasal, 0.3 mg/kg, intranasal 0.3 mg/kg, 0.3 w/v % in aqueous 0.005 w/v % benzalkonium chloride, 0.1 ml/kg
# [11] = inhaled or intranasal, 1 mg/kg, intranasal 1.0 mg/kg, 1.0 w/v % in aqueous 0.005 w/v % benzalkonium chloride, 0.1 ml/kg
structure (smiles),measurement,setting,value
"C[C@H](NC(=O)[C@@H](Cc1ccc2ccccc2c1)NC(=O)[C@@H](C)N)C(=O)N[C@@H](Cc1c[nH]c2ccccc12)C(=O)N[C@H](Cc1ccccc1)C(=O)N[C@@H](CCCCN)C(N)=O.Cl.Cl [pralmorelin dihydrochloride, D-alanyl-3-(naphthalen-2-yl)-D-alanyl-L-alanyl-L-tryptophyl-D-phenylalanyl-L-lysinamide dihydrochloride] (H-[dA][d2Nal]AW[dF]K-NH2)",Tmax,"[1]; inhaled or intranasal, intranasal 0.1 mg/kg, 0.1 w/v % in aqueous 0.005 w/v % benzalkonium chloride, 0.1 ml/kg",10.2 min
same,Tmax,"[1]; inhaled or intranasal, intranasal 0.3 mg/kg, 0.3 w/v % in aqueous 0.005 w/v % benzalkonium chloride, 0.1 ml/kg",10.2 min
same,Tmax,"[1]; inhaled or intranasal, intranasal 1.0 mg/kg, 1.0 w/v % in aqueous 0.005 w/v % benzalkonium chloride, 0.1 ml/kg",10.2 min
same,AUC,[1]; [3],2.71 ng·h/mL
same,Cmax,[1]; [3],2.37 ng/mL
same,AUC,[1]; [4],1.98 ng·h/mL
same,Cmax,[1]; [4],0.7 ng/mL
same,Cmax,[1]; [5],55.8 ng/mL
same,bioavailability,[1]; [5],22.1%
same,Cmax,[1]; [6],49.2 ng/mL
same,bioavailability,[1]; [6],19%
same,Cmax,[1]; [7],21.7 ng/mL
same,bioavailability,[1]; [7],9%
same,Cmax,[1]; [8],60.7 ng/mL
same,bioavailability,[1]; [8],26.2%
same,AUC,[1]; [9],14.5 ng·h/mL
same,Cmax,[1]; [9],18 ng/mL
same,AUC,[1]; [10],48.1 ng·h/mL
same,Cmax,[1]; [10],72.8 ng/mL
same,AUC,[1]; [11],250 ng·h/mL
same,Cmax,[1]; [11],502 ng/mL
same,bioavailability,"[1]; other: intranasal, 50 ug/kg, intranasal 50 μg/kg, 0.1 w/v % solution in 5 w/v % D-mannitol, AUC intranasal / AUC intravenous",4.22%
same,bioavailability,"[1]; other: intranasal, 50 ug/kg, intranasal 50 μg/kg, 0.1 w/v % solution in physiological saline, AUC intranasal / AUC intravenous",3.08%
same,saturated solubility in physiological saline,[2],0.15 w/v %

# — patent US7008927B2, “Pralmorelin-containing nasal drop preparations” (Kaken Pharmaceutical Co., Ltd., priority 2000, dated 2006)
